From US4957923A, “Diuretic or antihypertensive composition” (Fujisawa Pharmaceutical Co., Ltd., priority 1988, dated 1990)

Key:
Female SD rats = assay: Diuretic action (rats); assay type: in vivo, rat (SD); conditions: mean ± S.E.
Experimental: Female SD rats aged 6 weeks (9 rats per dosage) were used. After an 18-hour fast, the rats were dosed with the test drug and, at the same time, orally loaded with 20 ml/kg of physiological saline. The rats were then placed in metabolism cages, 3 animals per cage, and the 0-6 hour and 6-24 hour urines were collected. Meanwhile, the animals were additionally loaded with 25 ml/kg of physiological saline immediately after collection of the 0-6 hour urine. Na^+ in urine was determined with STAT/ION II (Technicon).
The results were respectively converted to the amounts of excretion per kg rat body weight, which were then tabulated as the mean±S.E. for each dose level.
The drug was suspended in 0.5% methylcellulose at necessary concentrations and 5 ml/kg of each suspension was orally administered. The control group similarly received 0.5% methylcellulose only.

Female beagle dogs = assay: Diuretic action (beagle dogs); assay type: in vivo, dog (beagle); conditions: 100 mg/kg p.o., interval not given, mean ± S.E.
Experimental: Female beagle dogs weighing 8 to 10 kg were used (6 dogs per group). After an 18-hour fast, the animals were orally dosed with 5 ml/kg of suspensions of the drug in 0.5% methylcellulose and, at the same time, orally loaded with 15 ml/kg of physiological saline and the 0-6 hr and 6-24 hr urines were collected. Meanwhile, the dogs were additionally loaded with 20 ml/kg of physiological saline immediately after collection of the 0-6 hr urine. Na^+ in urine was determined with STAT/ION (Technicone).
The results were respectively converted to the amounts of excretion per kg body weight, which were then tabulated as the mean±S.E. for each dose level. The control group similarly received 0.5% methylcellulose instead of the drug.

DOCA hypertensive rats = assay: Antihypertension action (DOCA hypertensive rats); assay type: in vivo, rat (Wistar)
Experimental: Male Wistar rats, 10 weeks old, were subjected to left nephrectomy and 2 to 4 days after operation, deoxycorticosterone acetate was administered subcutaneously in a dose of 30 mg/ml/kg twice a week. The animals were given 1% saline for drinking water and the individuals showing a mean blood pressure of ≥150 mmHg at 15 weeks of age were submitted to the experiment. After catheterization, saline for drinking water was replaced with tap water. At the beginning of the experiment, the test rats had mean blood pressures from 152 to 204 mmHg, heart rates from 354 to 462 beats/min. and body weights from 232 to 318 g. 3~5 Animals per group were used.
3 Or 4 days before the beginning of the experiment, one end of a catheter for blood pressure measurement was passed from the femoral artery to the abdominal aorta of each rat and the other end was passed beneath the skin and fixed in exposed position in the dorsocervical region. The drug was orally administered once a day for 5 consecutive days. The rats had been deprived of food for about 3 hours before drug administration. The blood pressure was measured before administration and 5 hours after administration of days 1, 3 and 5. At each blood pressure measurement, the mean blood pressure was observed via a pressure transducer connected to the dorsocervical end of the catheter for blood pressure measurement and the stabilized mean blood pressure was recorded.
Drug was suspended and diluted using a 0.5% solution of methylcellulose and 5ml/kg of the suspension was orally administered.

[1] = 3.2 mg/kg p.o. once a day, Day 1 after 5 hr
[2] = 3.2 mg/kg p.o. once a day, Day 1 before administration (baseline)
[3] = 3.2 mg/kg p.o. once a day, Day 3 after 5 hr
[4] = 3.2 mg/kg p.o. once a day, Day 3 before administration
[5] = 3.2 mg/kg p.o. once a day, Day 5 after 5 hr
[6] = 3.2 mg/kg p.o. once a day, Day 5 before administration
[7] = 10 mg/kg p.o. once a day, Day 1 after 5 hr
[8] = 10 mg/kg p.o. once a day, Day 1 before administration (baseline)
[9] = 10 mg/kg p.o. once a day, Day 3 after 5 hr
[10] = 10 mg/kg p.o. once a day, Day 3 before administration
[11] = 10 mg/kg p.o. once a day, Day 5 after 5 hr
[12] = 10 mg/kg p.o. once a day, Day 5 before administration
[13] = 100 mg/kg p.o. once a day, Day 1 after 5 hr
[14] = 100 mg/kg p.o. once a day, Day 1 before administration (baseline)
[15] = 100 mg/kg p.o. once a day, Day 3 after 5 hr
[16] = 100 mg/kg p.o. once a day, Day 3 before administration
[17] = 100 mg/kg p.o. once a day, Day 5 after 5 hr
[18] = 100 mg/kg p.o. once a day, Day 5 before administration

O=C(O)Cn1c(=O)n(Cc2ccc(Br)cc2F)c(=O)c2ccc(F)cc21 [Compound B, 2-[7-Fluoro-3-(4-bromo-2-fluorobenzyl)-1,2,3,4-tetrahydro-2,4-dioxoquinazolin-1-yl]acetic acid]
Urine volume (Female SD rats; 100 mg/kg p.o., 0-6 hr, control 13.2 ± 2.0): 30.1 ± 1.5 mL/kg | Na^+ (urine) (Female SD rats; 100 mg/kg p.o., 0-6 hr, control 1460 ± 173): 2416 ± 101 μEq/kg | Urine volume (Female SD rats; 100 mg/kg p.o., 6-24 hr, control 26.59 ± 2.24): 33.69 ± 0.55 mL/kg | Na^+ (urine) (Female SD rats; 100 mg/kg p.o., 6-24 hr, control 3830 ± 463): 3940 ± 295 μEq/kg | Urine volume (Female SD rats; 100 mg/kg p.o., total 0-24 hr, control 39.78 ± 4.26): 63.75 ± 1.19 mL/kg | Na^+ (urine) (Female SD rats; 100 mg/kg p.o., total 0-24 hr, control 5289 ± 636): 6356 ± 311 μEq/kg | Urine volume (Female SD rats; 320 mg/kg p.o., 0-6 hr, control 13.2 ± 2.0): 37.9 ± 1.5 mL/kg | Na^+ (urine) (Female SD rats; 320 mg/kg p.o., 0-6 hr, control 1460 ± 173): 3021 ± 440 μEq/kg | Urine volume (Female SD rats; 320 mg/kg p.o., 6-24 hr, control 26.59 ± 2.24): 61.22 ± 6.20 mL/kg | Na^+ (urine) (Female SD rats; 320 mg/kg p.o., 6-24 hr, control 3830 ± 463): 5861 ± 194 μEq/kg | Urine volume (Female SD rats; 320 mg/kg p.o., total 0-24 hr, control 39.78 ± 4.26): 99.10 ± 6.64 mL/kg | Na^+ (urine) (Female SD rats; 320 mg/kg p.o., total 0-24 hr, control 5289 ± 636): 8882 ± 630 μEq/kg | Urine volume (Female beagle dogs; control 5.8 ± 1.4): 13.3 ± 2.6 mL/kg | Na^+ (urine) (Female beagle dogs; control 544 ± 133): 1068 ± 280 μEq/kg | Mean blood pressure (DOCA hypertensive rats; [1]): 176 mm Hg | Percentage of change (mean blood pressure) (DOCA hypertensive rats; [1]): -8.9% | Mean blood pressure (DOCA hypertensive rats; [2]): 193 mm Hg | Percentage of change (mean blood pressure) (DOCA hypertensive rats; [2]): 0.0% | Mean blood pressure (DOCA hypertensive rats; [3]): 160 mm Hg | Percentage of change (mean blood pressure) (DOCA hypertensive rats; [3]): -17.1% | Mean blood pressure (DOCA hypertensive rats; [4]): 175 mm Hg | Percentage of change (mean blood pressure) (DOCA hypertensive rats; [4]): -9.3% | Mean blood pressure (DOCA hypertensive rats; [5]): 161 mm Hg | Percentage of change (mean blood pressure) (DOCA hypertensive rats; [5]): -16.7% | Mean blood pressure (DOCA hypertensive rats; [6]): 167 mm Hg | Percentage of change (mean blood pressure) (DOCA hypertensive rats; [6]): -13.5% | Mean blood pressure (DOCA hypertensive rats; [7]): 148 mm Hg | Percentage of change (mean blood pressure) (DOCA hypertensive rats; [7]): -17.5% | Mean blood pressure (DOCA hypertensive rats; [8]): 180 mm Hg | Percentage of change (mean blood pressure) (DOCA hypertensive rats; [8]): 0.0% | Mean blood pressure (DOCA hypertensive rats; [9]): 132 mm Hg | Percentage of change (mean blood pressure) (DOCA hypertensive rats; [9]): -26.1% | Mean blood pressure (DOCA hypertensive rats; [10]): 137 mm Hg | Percentage of change (mean blood pressure) (DOCA hypertensive rats; [10]): -23.3% | Mean blood pressure (DOCA hypertensive rats; [11]): 143 mm Hg | Percentage of change (mean blood pressure) (DOCA hypertensive rats; [11]): -20.0% | Mean blood pressure (DOCA hypertensive rats; [12]): 139 mm Hg | Percentage of change (mean blood pressure) (DOCA hypertensive rats; [12]): -22.5% | Mean blood pressure (DOCA hypertensive rats; [13]): 151 mm Hg | Percentage of change (mean blood pressure) (DOCA hypertensive rats; [13]): -14.5% | Mean blood pressure (DOCA hypertensive rats; [14]): 176 mm Hg | Percentage of change (mean blood pressure) (DOCA hypertensive rats; [14]): 0.0% | Mean blood pressure (DOCA hypertensive rats; [15]): 130 mm Hg | Percentage of change (mean blood pressure) (DOCA hypertensive rats; [15]): -26.2% | Mean blood pressure (DOCA hypertensive rats; [16]): 144 mm Hg | Percentage of change (mean blood pressure) (DOCA hypertensive rats; [16]): -18.4% | Mean blood pressure (DOCA hypertensive rats; [17]): 135 mm Hg | Percentage of change (mean blood pressure) (DOCA hypertensive rats; [17]): -23.6% | Mean blood pressure (DOCA hypertensive rats; [18]): 138 mm Hg | Percentage of change (mean blood pressure) (DOCA hypertensive rats; [18]): -22.3%
